# Key:
# Prothrombin = Prothrombin (Homo sapiens, UniProt P00734); format: functional
# Histamine H3 receptor = Histamine H3 receptor (Homo sapiens, UniProt Q9Y5N1)
# [1] = target: T1, Prostaglandin G/H synthase 1 (Homo sapiens, UniProt P23219); format: functional
# [2] = target: 5-hydroxytryptamine receptor 2B (Homo sapiens, UniProt P41595); format: functional, cell-based
# Progesterone receptor = target: T2, Progesterone receptor (Homo sapiens, UniProt P06401)
# T2 sequence (P06401 whole entry): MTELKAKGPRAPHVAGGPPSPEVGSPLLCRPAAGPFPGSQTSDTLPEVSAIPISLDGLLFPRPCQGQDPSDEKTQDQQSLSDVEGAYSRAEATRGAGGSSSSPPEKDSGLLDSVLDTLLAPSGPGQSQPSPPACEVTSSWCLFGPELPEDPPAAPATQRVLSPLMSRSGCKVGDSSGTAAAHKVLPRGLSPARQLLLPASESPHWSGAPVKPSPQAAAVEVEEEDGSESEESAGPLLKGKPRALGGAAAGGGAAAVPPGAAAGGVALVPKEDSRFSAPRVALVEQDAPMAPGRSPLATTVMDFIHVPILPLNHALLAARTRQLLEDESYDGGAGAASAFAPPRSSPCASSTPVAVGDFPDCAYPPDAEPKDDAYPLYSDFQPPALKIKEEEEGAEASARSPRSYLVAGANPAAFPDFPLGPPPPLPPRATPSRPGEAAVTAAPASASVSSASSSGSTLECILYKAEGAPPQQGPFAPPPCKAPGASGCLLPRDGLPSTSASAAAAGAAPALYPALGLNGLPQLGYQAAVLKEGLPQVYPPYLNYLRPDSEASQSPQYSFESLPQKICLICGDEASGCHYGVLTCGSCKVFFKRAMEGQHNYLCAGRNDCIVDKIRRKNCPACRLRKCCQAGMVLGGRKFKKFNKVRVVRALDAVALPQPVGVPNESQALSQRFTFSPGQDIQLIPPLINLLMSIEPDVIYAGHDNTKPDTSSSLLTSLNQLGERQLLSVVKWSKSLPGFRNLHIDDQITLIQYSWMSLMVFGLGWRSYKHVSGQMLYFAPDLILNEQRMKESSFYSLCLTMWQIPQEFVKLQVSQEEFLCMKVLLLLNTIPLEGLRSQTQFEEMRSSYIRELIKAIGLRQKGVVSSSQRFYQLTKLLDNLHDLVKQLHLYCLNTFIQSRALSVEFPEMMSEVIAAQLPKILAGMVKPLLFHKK
# [3] = target: T1, Prostaglandin G/H synthase 1; format: functional; remark: listed apart in the source
# [4] = target: T3, Amine oxidase [flavin-containing] A (Homo sapiens, UniProt P21397); format: functional
# T3 sequence (P21397 whole entry): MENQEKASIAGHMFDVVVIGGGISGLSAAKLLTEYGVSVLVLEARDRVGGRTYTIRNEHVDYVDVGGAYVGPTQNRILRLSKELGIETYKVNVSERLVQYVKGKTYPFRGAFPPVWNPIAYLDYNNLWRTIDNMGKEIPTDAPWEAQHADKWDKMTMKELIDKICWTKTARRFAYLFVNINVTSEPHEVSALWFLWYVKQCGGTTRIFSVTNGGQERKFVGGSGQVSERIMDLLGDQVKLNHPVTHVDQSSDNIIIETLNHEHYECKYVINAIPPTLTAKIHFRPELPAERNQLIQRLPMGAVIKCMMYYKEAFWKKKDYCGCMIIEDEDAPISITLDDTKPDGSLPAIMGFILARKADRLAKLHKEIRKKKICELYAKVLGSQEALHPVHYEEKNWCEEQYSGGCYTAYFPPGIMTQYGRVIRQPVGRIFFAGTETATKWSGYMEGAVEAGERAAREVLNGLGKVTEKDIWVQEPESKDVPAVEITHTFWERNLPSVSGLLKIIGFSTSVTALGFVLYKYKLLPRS
# [5] = target: T4, 5-hydroxytryptamine receptor 1A (Homo sapiens, UniProt P08908)
# T4 sequence (P08908 whole entry): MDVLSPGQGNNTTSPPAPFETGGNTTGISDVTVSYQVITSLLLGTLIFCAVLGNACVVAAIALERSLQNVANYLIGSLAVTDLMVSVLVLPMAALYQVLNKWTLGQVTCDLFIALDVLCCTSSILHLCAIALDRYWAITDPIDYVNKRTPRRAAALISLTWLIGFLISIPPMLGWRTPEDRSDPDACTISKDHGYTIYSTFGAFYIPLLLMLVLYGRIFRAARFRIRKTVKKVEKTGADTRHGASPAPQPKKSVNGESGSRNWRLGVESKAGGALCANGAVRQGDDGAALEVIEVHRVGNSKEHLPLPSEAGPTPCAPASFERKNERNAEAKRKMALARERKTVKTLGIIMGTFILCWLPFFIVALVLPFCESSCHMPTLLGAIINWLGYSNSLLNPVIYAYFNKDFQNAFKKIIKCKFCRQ
# D(1A) dopamine receptor = D(1A) dopamine receptor (Homo sapiens, UniProt P21728)
# Sequence of D(1A) dopamine receptor (P21728 whole entry): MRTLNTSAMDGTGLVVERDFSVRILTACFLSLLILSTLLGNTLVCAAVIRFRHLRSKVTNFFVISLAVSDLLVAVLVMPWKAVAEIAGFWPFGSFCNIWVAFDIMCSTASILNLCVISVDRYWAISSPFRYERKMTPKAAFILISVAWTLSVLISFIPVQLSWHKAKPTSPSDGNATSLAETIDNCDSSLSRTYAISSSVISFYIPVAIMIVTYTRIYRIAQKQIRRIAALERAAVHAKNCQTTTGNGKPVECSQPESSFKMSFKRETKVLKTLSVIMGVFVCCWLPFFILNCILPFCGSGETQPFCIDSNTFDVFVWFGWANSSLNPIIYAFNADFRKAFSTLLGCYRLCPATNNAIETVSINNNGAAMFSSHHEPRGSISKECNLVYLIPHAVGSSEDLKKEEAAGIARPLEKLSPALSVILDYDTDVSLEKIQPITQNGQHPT
# [6] = target: T5, Alpha-1A adrenergic receptor (Homo sapiens, UniProt P35348); format: functional, cell-based
# T5 sequence (P35348 whole entry): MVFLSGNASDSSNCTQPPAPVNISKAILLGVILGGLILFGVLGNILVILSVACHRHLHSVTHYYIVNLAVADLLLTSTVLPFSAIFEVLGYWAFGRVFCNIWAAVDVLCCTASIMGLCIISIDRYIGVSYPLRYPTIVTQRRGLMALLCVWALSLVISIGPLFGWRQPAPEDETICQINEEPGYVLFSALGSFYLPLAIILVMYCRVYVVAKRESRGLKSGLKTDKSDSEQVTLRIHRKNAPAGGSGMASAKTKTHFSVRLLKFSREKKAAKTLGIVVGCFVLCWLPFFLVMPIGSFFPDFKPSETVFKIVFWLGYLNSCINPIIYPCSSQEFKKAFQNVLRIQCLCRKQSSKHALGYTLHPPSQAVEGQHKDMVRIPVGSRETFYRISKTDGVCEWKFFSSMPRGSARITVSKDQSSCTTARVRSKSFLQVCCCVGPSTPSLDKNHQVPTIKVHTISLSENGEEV
# [7] = target: Sodium-dependent dopamine transporter (Homo sapiens, UniProt Q01959)
# Sequence of Sodium-dependent dopamine transporter (Q01959 whole entry): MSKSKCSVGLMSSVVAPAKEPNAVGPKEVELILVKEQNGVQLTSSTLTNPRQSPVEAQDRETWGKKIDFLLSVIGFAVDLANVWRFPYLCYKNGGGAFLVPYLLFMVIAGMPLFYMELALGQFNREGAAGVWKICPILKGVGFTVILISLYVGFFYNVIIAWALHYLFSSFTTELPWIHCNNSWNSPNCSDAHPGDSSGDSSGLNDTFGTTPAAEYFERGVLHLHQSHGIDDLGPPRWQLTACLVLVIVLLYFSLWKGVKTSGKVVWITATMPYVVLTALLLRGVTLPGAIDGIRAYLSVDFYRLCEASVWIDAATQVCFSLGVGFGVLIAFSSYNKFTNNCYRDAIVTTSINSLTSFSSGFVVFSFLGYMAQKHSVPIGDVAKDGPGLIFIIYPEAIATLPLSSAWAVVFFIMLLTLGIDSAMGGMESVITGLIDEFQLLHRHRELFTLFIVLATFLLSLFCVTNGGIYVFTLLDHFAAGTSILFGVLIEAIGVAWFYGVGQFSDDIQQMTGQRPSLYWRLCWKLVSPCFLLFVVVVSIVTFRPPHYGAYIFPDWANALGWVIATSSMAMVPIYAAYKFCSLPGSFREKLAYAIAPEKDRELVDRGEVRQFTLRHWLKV
# Also: assay procedure not described here.
# T1 sequence (P23219 whole entry): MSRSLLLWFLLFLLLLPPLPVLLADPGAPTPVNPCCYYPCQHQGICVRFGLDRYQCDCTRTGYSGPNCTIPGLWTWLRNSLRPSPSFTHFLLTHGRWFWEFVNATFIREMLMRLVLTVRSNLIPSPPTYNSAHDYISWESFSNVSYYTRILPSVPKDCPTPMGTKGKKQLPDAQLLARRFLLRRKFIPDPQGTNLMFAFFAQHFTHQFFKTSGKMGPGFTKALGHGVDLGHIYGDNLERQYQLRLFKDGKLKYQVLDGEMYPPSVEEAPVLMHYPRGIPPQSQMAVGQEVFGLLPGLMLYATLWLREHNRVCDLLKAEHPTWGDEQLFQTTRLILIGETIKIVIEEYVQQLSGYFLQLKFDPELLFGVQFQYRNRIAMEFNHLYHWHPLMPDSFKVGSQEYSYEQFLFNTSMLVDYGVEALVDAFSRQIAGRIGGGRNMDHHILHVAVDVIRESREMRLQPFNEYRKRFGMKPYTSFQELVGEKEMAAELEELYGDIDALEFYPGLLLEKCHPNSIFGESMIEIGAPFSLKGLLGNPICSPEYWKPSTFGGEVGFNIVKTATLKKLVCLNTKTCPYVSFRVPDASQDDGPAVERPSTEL
# Sequence of Histamine H3 receptor (Q9Y5N1 whole entry): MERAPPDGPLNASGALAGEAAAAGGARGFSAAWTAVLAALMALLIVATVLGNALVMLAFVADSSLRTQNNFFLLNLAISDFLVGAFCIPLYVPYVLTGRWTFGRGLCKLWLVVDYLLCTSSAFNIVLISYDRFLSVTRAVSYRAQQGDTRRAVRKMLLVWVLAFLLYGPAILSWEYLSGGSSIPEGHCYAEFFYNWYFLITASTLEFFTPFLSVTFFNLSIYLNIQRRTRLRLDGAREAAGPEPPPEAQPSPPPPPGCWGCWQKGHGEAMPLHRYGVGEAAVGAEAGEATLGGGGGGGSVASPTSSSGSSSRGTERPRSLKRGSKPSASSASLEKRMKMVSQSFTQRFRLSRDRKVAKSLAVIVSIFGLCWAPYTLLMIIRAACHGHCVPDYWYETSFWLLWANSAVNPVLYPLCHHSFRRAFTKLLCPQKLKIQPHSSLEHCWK
# Sequence of 5-hydroxytryptamine receptor 2B (P41595 whole entry): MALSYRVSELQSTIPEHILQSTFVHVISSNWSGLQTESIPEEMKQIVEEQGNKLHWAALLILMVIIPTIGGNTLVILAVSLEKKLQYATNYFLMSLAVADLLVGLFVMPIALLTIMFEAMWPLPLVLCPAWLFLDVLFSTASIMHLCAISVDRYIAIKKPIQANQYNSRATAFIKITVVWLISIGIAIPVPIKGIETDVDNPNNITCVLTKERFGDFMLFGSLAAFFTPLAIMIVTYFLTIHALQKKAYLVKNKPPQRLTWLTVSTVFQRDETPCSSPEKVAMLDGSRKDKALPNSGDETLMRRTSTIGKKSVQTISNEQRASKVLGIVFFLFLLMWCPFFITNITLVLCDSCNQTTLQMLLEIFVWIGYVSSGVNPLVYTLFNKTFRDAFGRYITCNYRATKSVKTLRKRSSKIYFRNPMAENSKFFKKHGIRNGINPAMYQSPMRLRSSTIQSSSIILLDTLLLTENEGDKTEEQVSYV
smiles,measurement,setting,value
C[C@@H]1C[C@H]2[C@@H]3CCC4=CC(=O)C=C[C@]4(C)C3=CC[C@]2(C)[C@H]1C(=O)CN1CCN(c2cc(N3CCCC3)nc(N3CCCC3)n2)CC1 [TIRILAZAD],AC50,Prothrombin,> 30 µM
same,AC50,Histamine H3 receptor,> 30 µM
same,AC50,[1],3.05 µM
same,AC50,[2],> 30 µM
same,AC50,Progesterone receptor,6.37 µM
same,AC50,[3],3.8 µM
same,AC50,[4],> 30 µM
same,AC50,[5],> 30 µM
same,AC50,D(1A) dopamine receptor,7.07 µM
same,AC50,[6],> 30 µM
same,AC50,[7],> 30 µM
